According to US11872225B2, “Pyruvate kinase modulators and use thereof” (Agios Pharmaceuticals, Inc., priority 2017, dated 2024):

What was measured:
wild type PKM2 = wild type PKM2 (Homo sapiens, UniProt P14618); test: PKM2 Assay (LDH/NADH-coupled, absorbance at 340 nm); assay type: biochemical; details: wild type PKM2 activation; 60 min preincubation at 25° C.; ADP 0.4 mM, PEP 0.11 mM; read-out: PKM2 WT AC50
Description: A compound described herein may be tested for its ability to activate PKM2. For simplicity, the activation activity of these compounds is represented as an AC50 in Table 2. In Tables 2, a compound described herein may have an AC50 of wild type PKM2.
PKM2 enzyme stock solution was diluted to prepare a 1.11× Reaction Mix (without ADP). 1 μL of test compound was first added to the wells followed by 40 μL of 1.11× Reaction Mix (without ADP) and incubated at room temperature (25° C.) for 60 min. The reaction was initiated with 10 μL ADP (0.4 mM final concentration), bringing the final Reaction Mix to 1×, and the reaction progress was measured as changes in absorbance at 340 nm wavelength at room temperature.
Test compound preparation: Test compounds were prepared at 50× final concentration in DMSO. 1 to 3 dilutions were made for 11 points (for example 50 μL of 5000 μM compound was added to 100 μL 100% DMSO to yield a 1667 μM, 50 μL of this added to 100 μL DMSO to yield 556 μM, and so forth). The compounds were added to the assay as a 1 to 50 dilution (1 μL in 50 μL) to yield a top concentration of 100 μM, decreasing 3-fold for 11 points.
Reaction Mix: PKM2 (5 ng/well, 0.1 μg/ml), ADP (0.4 mM), PEP (0.11 mM), NADH (180 μM), LDH (0.005 U/μL, Sigma #L3888), 1 mM DTT, 0.03% BSA in 1× Reaction Buffer
Reaction Buffer: 100 mM KCl, 50 mM Tris pH 7.5, 5 mM MgCl2.

PKM2 = PKM2 (Mus musculus, UniProt P52480); details: in vivo, LPS; cited from earlier work
Chain of PKM2 (P52480 whole entry): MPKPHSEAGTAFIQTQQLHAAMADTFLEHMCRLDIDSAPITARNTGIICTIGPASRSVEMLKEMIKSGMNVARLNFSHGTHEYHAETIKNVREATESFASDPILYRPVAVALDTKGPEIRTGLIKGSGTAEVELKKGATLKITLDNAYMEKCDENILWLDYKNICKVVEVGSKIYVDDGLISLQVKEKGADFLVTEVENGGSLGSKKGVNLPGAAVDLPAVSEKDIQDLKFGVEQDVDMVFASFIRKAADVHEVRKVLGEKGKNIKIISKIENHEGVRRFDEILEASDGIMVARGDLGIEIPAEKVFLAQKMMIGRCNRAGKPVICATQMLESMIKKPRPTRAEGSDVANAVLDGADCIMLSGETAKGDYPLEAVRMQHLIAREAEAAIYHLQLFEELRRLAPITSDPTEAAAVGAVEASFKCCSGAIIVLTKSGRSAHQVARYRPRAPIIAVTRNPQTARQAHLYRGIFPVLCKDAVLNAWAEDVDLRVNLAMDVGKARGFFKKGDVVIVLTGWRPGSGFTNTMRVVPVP

Chain of wild type PKM2 (P14618 whole entry): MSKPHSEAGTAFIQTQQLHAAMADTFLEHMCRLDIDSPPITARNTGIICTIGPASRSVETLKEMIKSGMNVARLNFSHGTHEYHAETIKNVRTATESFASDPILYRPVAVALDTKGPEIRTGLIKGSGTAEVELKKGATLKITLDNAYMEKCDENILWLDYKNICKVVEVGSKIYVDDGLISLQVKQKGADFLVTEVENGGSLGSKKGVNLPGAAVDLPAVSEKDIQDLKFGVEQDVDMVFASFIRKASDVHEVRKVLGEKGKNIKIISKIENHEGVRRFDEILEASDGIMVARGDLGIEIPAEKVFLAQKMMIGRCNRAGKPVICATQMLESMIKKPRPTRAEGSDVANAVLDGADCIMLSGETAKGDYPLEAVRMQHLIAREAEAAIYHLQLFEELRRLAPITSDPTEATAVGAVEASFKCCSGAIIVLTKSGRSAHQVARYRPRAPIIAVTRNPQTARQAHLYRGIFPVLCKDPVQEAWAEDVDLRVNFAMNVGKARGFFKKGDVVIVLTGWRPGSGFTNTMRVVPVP

Row | AC50 (wild type PKM2) [nM] | Structure (SMILES) | also measured
1 | > 800 | CCOC(=O)Cn1ncc2c3sc(C)nc3n(C)c2c1=O [Compound 24] | –
2 | > 800 | Cn1c2nc(Cn3cncn3)sc2c2cnn(Cc3n[nH]c(=O)[nH]3)c(=O)c21 [Compound 145] | –
3 | 301 to 800 | Cc1nc2c(s1)c1cnn(Cc3cccc([N+](=O)[O-])c3)c(=O)c1n2C [Compound 16] | –
4 | > 800 | Cn1c2nc(Cc3ccncc3)sc2c2cnn(Cc3cccc4[nH]ncc34)c(=O)c21 [Compound 57] | –
5 | < 300 | COC(=O)C(c1ccccc1)c1nc2c(s1)c1cnn(Cc3cccc4[nH]ncc34)c(=O)c1n2C (stereo not drawn) [Compound 51] | –
6 | > 800 | O=c1c2c(cnn1Cc1ccccc1)c1sc(Cc3cc[nH]n3)nc1n2Cc1ccccc1 [Compound 142] | –
7 | < 300 | Cn1c2nc([S+](C)[O-])sc2c2cnn(Cc3cnc(N)s3)c(=O)c21 (stereo not drawn) [Compound 38] | –
8 | < 300 | Cn1c2nc(Cc3cc[nH]n3)sc2c2cnn(Cc3csc(N)n3)c(=O)c21 [Compound 75] | –
9 | 301 to 800 | Cn1c2nc(SCc3ccccc3)sc2c2cnn(Cc3cccc4[nH]ncc34)c(=O)c21 [Compound 45] | –
10 | < 300 | Cn1c2nc(Cc3n[nH]cc3F)sc2c2cnn(Cc3cc[nH]n3)c(=O)c21 [Compound 111] | –
11 | > 800 | Cc1nc2c(s1)c1cnn(Cc3ccc(N)cc3)c(=O)c1n2C [Compound 18] | –
12 | > 800 | CCOC(c1cscn1)c1nc2c(s1)c1cnn(Cc3c[nH]nn3)c(=O)c1n2C (stereo not drawn) [Compound 114] | –
13 | < 300 | Cn1c2nc(Cn3ccnc3)sc2c2cnn(Cc3cccc(C(N)=O)c3)c(=O)c21 [Compound 129] | –
14 | < 300 | CC(=O)c1cccc(Cn2ncc3c4sc([S+](C)[O-])nc4n(C)c3c2=O)c1 (stereo not drawn) [Compound 32] | –
15 | < 300 | Cc1nc2c(s1)c1cnn(Cc3cccc(F)c3)c(=O)c1n2C [Compound 2] | –
16 | < 300 | Cn1c2nc(Cc3cc[nH]n3)sc2c2cnn(Cc3csc(C(N)=O)n3)c(=O)c21 [Compound 69] | –

Row | AC50 (wild type PKM2) [nM] | Structure (SMILES) | also measured
17 | < 300 | COc1cccc(Cn2ncc3c4sc(C(=O)c5ccccc5)nc4n(C)c3c2=O)c1 [Compound 1] | –
18 | < 300 | Cn1c2nc(C(=O)c3cc[nH]n3)sc2c2cnn(Cc3cccc(N)n3)c(=O)c21 [Compound 123] | –
19 | < 300 | Cn1c2nc(Cc3ccccn3)sc2c2cnn(Cc3nccs3)c(=O)c21 [Compound 91] | –
20 | > 800 | Cc1nc2c(s1)c1cnn(Cc3ccc([N+](=O)[O-])cc3)c(=O)c1n2C [Compound 17] | –
21 | < 300 | Cn1c2nc(Cc3cc[nH]n3)sc2c2cnn(Cc3nc(N)ccc3F)c(=O)c21 [Compound 107] | –
22 | < 300 | Cn1c2nc(Cc3cc[nH]n3)sc2c2cnn(Cc3nccs3)c(=O)c21 [Compound 78] | –
23 | 301 to 800 | COC(=O)c1nc2c(s1)c1cnn(Cc3cccc(OC)c3)c(=O)c1n2C [Compound 13] | –
24 | < 300 | Cn1c2nc(Cc3cc[nH]n3)sc2c2cnn(Cc3cccc4c3CCN4)c(=O)c21 [Compound 85] | –
25 | < 300 | Cn1c2nc(Cc3cc[nH]n3)sc2c2cnn(Cc3ccccc3)c(=O)c21 [Compound 72] | –
26 | > 800 | Cn1c2nc(C3(c4ccccc4)CC3)sc2c2cnn(Cc3cccc4[nH]ncc34)c(=O)c21 [Compound 53] | –
27 | > 800 | Cn1c2nc(C(O)c3ccccn3)sc2c2cnn(Cc3cccc4[nH]ncc34)c(=O)c21 (stereo not drawn) [Compound 48] | –
28 | > 800 | Cn1c2nc(Cc3cc[nH]n3)sc2c2cnn(Cc3ccc(C(N)=O)cc3)c(=O)c21 [Compound 61] | –
29 | < 300 | Cn1c2nc(Cc3cc[nH]n3)sc2c2cnn(Cc3coc(C(N)=O)n3)c(=O)c21 [Compound 132] | –
30 | < 300 | CC(=O)Nc1ccc(F)c(Cn2ncc3c4sc(Cc5cc[nH]n5)nc4n(C)c3c2=O)n1 [Compound 115] | –
31 | < 300 | C=Cc1nc2c(s1)c1cnn(Cc3cccc4[nH]ncc34)c(=O)c1n2C [Compound 39] | –
32 | < 300 | Cn1ccc(Cn2ncc3c4sc(Cc5n[nH]cc5F)nc4n(C)c3c2=O)n1 [Compound 113] | –

More lines, now with the values behind:

Row | Structure (SMILES) | AC50 (wild type PKM2) [nM] | also measured
33 | Cn1c2nc(Cc3ccc(=O)[nH]c3)sc2c2cnn(Cc3cccc4[nH]ncc34)c(=O)c21 [Compound 60] | > 800 | –
34 | Cn1c2nc(Cc3cc[nH]c(=O)c3)sc2c2cnn(Cc3cccc4[nH]ncc34)c(=O)c21 [Compound 76] | < 300 | –
35 | CSc1nc2c(s1)c1cnn(Cc3csc(-n4c(C)ccc4C)n3)c(=O)c1n2C [Compound 47] | > 800 | –
36 | Cn1c2nc(Cc3cc[nH]n3)sc2c2cnn(Cc3cccc(N)n3)c(=O)c21 [Compound 74] | < 300 | –
37 | Cn1c2nc(Cc3n[nH]cc3F)sc2c2cnn(Cc3n[nH]cc3OC(F)(F)F)c(=O)c21 [Compound 121] | 301 to 800 | –
38 | Cc1nc2c(s1)c1cnn(Cc3ccc4[nH]c(=O)[nH]c4c3)c(=O)c1n2C [Compound 22] | > 800 | –
39 | Cn1c2nc([S+](C)[O-])sc2c2cnn(Cc3cccc4c3CCNC4)c(=O)c21 (stereo not drawn) [Compound 30] | < 300 | –
40 | Cc1nc2c(s1)c1cnn(CCCO)c(=O)c1n2C [Compound 15] | > 800 | –
41 | Cn1c2nc(Cc3ccc(C(N)=O)cc3)sc2c2cnn(Cc3cccc4[nH]ncc34)c(=O)c21 [Compound 42] | > 800 | –
42 | CSc1nc2c(s1)c1cnn(Cc3cn4cccnc4n3)c(=O)c1n2C [Compound 40] | > 800 | –
43 | COC(=O)C(c1cc[nH]n1)c1nc2c(s1)c1cnn(Cc3cccc4[nH]ncc34)c(=O)c1n2C (stereo not drawn) [Compound 58] | > 800 | –
44 | Cn1ccc(CCn2ncc3c4sc(Cc5cccnc5)nc4n(C)c3c2=O)n1 [Compound 137] | 301 to 800 | –
45 | CSc1nc2c(s1)c1cnn(Cc3cccc(S(N)(=O)=O)c3)c(=O)c1n2C [Compound 41] | 301 to 800 | –
46 | Cc1nc2c(s1)c1cnn(Cc3cn[nH]c3)c(=O)c1n2C [Compound 26] | 301 to 800 | –
47 | Cn1c2nc(Cc3ccccn3)sc2c2cnn(CC3CCOCC3)c(=O)c21 [Compound 139] | > 800 | –
48 | Cn1c2nc(Cc3c[nH]nn3)sc2c2cnn(Cc3cccc(N)n3)c(=O)c21 [Compound 104] | < 300 | –
49 | Cn1c2nc(Cc3ccns3)sc2c2cnn(Cc3cccc4[nH]ncc34)c(=O)c21 [Compound 82] | 301 to 800 | –
50 | Cn1nncc1Cn1ncc2c3sc(Cc4cc[nH]n4)nc3n(C)c2c1=O [Compound 108] | < 300 | –
51 | Cn1c2cc([S+](C)[O-])sc2c2cnn(Cc3cccc(N)c3)c(=O)c21 (stereo not drawn) [TEPP-46] | – | IL-1β production (PKM2): inhibited LPS and IL-1β production; production of IL-10 (PKM2): boosting production of IL-10
52 | Cn1ccc(Cn2ncc3c4sc(CCc5cccnc5)nc4n(C)c3c2=O)n1 [Compound 141] | > 800 | –

Row | Structure (SMILES) | AC50 (wild type PKM2) [nM] | also measured
53 | Cn1c2nc(Cc3ccccn3)sc2c2cnn(Cc3cc[nH]n3)c(=O)c21 [Compound 92] | < 300 | –
54 | Cn1c2nc(Cc3cc[nH]n3)sc2c2cnn(Cc3n[nH]cc3F)c(=O)c21 [Compound 105] | < 300 | –
55 | Cn1c2nc(Cc3csc(C(N)=O)n3)sc2c2cnn(Cc3cccc4[nH]ncc34)c(=O)c21 [Compound 79] | > 800 | –
56 | Cc1nc2c(s1)c1cnn(Cc3cccc4[nH]ncc34)c(=O)c1n2C [Compound 8] | < 300 | –
57 | COc1ccccc1Cn1ncc2c3sc(C)nc3n(C)c2c1=O [Compound 3] | 301 to 800 | –
58 | Cn1cc(C(=O)O)c(Cn2ncc3c4sc(Cc5cc[nH]n5)nc4n(C)c3c2=O)n1 [Compound 117] | > 800 | –
59 | Cc1nc2c(s1)c1cnn(Cc3ccc(CO)cc3)c(=O)c1n2C [Compound 14] | > 800 | –
60 | Cn1c2nc(Cc3cc[nH]n3)sc2c2cnn(Cc3ccc4scnc4c3)c(=O)c21 [Compound 88] | < 300 | –
61 | Cn1cc(Cc2nc3c(s2)c2cnn(Cc4cccc5[nH]ncc45)c(=O)c2n3C)cn1 [Compound 66] | < 300 | –
62 | COc1cccc(Cn2ncc3c4sc(C(=O)c5cccc(O)c5)nc4n(C)c3c2=O)c1 [Compound 21] | < 300 | –
63 | Cn1c2nc(Cc3cc[nH]n3)sc2c2cnn(CCc3cccnc3)c(=O)c21 [Compound 136] | 301 to 800 | –
64 | CCn1c2nc(Cc3cc[nH]n3)sc2c2cnn(Cc3ccccc3)c(=O)c21 [Compound 138] | > 800 | –
65 | Cn1c2nc(Cc3n[nH]cc3C(F)(F)F)sc2c2cnn(Cc3cccc4[nH]ncc34)c(=O)c21 [Compound 59] | > 800 | –
66 | Cn1c2nc(Cc3cncnc3)sc2c2cnn(Cc3cccc4[nH]ncc34)c(=O)c21 [Compound 56] | > 800 | –
67 | CSc1nc2c(s1)c1cnn(Cc3ccc(S(N)(=O)=O)cc3)c(=O)c1n2C [Compound 44] | > 800 | –
68 | Cn1cc(Cc2nc3c(s2)c2cnn(Cc4cccc(C(N)=O)c4)c(=O)c2n3C)cn1 [Compound 128] | < 300 | –
69 | Cn1c2nc(CN)sc2c2cnn(Cc3cccc4[nH]ncc34)c(=O)c21 [Compound 49] | 301 to 800 | –
70 | Cn1cc(CN)c(Cn2ncc3c4sc(Cc5cc[nH]n5)nc4n(C)c3c2=O)n1 [Compound 124] | 301 to 800 | –
71 | Cn1c2nc(Cc3cc[nH]n3)sc2c2cnn(Cc3[nH]ncc3Cl)c(=O)c21 [Compound 103] | < 300 | –
